In patent US20250009660A1, “LIPID COMPOUND, LIPOSOME, EXOSOME, LIPID NANOPARTICLE, AND DRUG DELIVERY SYSTEM” (NAGASAKI UNIVERSITY, priority 2021, published 2025):
Entries after “also recorded” stand apart in the source; their conditions may differ.

Key:
[1] = system: C26; test: Evaluation of cell binding properties / cell uptake of modified liposome; assay type: cell-based, Mouse; details: C26 cells; for cell uptake (cell binding properties): rhodamine-labeled liposome modified with the lipid compound (FIG. 13)
Text: (§1) The liposome was modified with a lipid compound by a post-modification method using NanoAssemblr (nano pharmaceutical production apparatus; manufactured by Precision NanoSystems Inc.).

[2] = system: NIH3T3; test: as above; assay type: cell-based, Mouse; details: NIH3T3 cells; for cell uptake (cell binding properties): rhodamine-labeled liposome modified with the lipid compound (FIG. 13)
Text: as §1

[3] = liposome modified with the lipid, compared with KK-(EK)4 lipid-modified liposome (FIG. 15)

Row | Substance | cell uptake (cell binding properties) [1] | cell uptake (cell binding properties) [2] | cell binding properties [1, 3] | cell binding properties [2, 3]
1 | K-(EK)4-dipalmitoyllysine [K1] | an increase in cell uptake was observed compared with the unmodified liposome | an increase in cell uptake was observed compared with the unmodified liposome | – | –
2 | KK-(EK)4-dipalmitoyllysine [K2] | an increase in cell uptake was observed compared with the unmodified liposome; also recorded: In comparison with K1, the uptake of K2 increased in all of the cells | an increase in cell uptake was observed compared with the unmodified liposome; also recorded: In comparison with K1, the uptake of K2 increased in all of the cells | – | –
3 | KKK-(EK)4-dipalmitoyllysine [K3] | an increase in cell uptake was observed compared with the unmodified liposome; also recorded: the uptake of K3 and K4 when compared with K2 was the same | an increase in cell uptake was observed compared with the unmodified liposome; also recorded: the uptake of K3 and K4 when compared with K2 was the same | – | –
4 | KKKK-(EK)4-dipalmitoyllysine [K4] | an increase in cell uptake was observed compared with the unmodified liposome; also recorded: the uptake of K3 and K4 when compared with K2 was the same | an increase in cell uptake was observed compared with the unmodified liposome; also recorded: the uptake of K3 and K4 when compared with K2 was the same | – | –
5 | RR-(EK)4-dipalmitoyllysine [RR-(EK)4 lipid] | – | – | the same cell binding properties were exhibited | the same cell binding properties were exhibited
